Data taken from patent publication US7968534B2, “Sulfonamide derivatives, preparation thereof and use thereof as antagonists of orexin 2 receptors” (Sanofi-Aventis, priority 2006, dated 2011).
Structures can show the parent of a compound that is named as a salt. Where two headings read alike, the source gives them in different places.

Assays:
human orexin 2 receptors = molecular target: T1, human orexin 2 receptors (Homo sapiens, UniProt O43614); assay: in vitro binding test: displacement of radioiodinated orexin A, membranes of CHO cells; settings: read-out: IC50 OX 2
T1 construct: expressed in transfected cells; host or cells: CHO cells (membranes)
T1 sequence (O43614 1-444): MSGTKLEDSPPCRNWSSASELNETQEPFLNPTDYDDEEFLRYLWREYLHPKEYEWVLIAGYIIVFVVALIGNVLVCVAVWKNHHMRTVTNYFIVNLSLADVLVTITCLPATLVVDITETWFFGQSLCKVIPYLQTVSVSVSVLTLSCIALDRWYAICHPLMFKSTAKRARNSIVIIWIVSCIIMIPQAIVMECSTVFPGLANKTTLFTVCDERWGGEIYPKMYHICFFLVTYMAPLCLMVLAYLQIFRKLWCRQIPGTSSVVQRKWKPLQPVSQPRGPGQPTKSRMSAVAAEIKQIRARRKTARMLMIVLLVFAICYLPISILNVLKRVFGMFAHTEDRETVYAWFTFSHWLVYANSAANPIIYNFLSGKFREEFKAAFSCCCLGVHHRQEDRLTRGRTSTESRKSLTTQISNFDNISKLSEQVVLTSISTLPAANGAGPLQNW
Experimental: (§1) They were in particular tested for their effects. […] This method consists in studying the displacement of radioiodinated orexin A attached to the human orexin 2 receptors expressed in CHO cells. The test is performed on membranes in a 50 mM Hepes incubation buffer containing 1 mM MgCl2, 25 mM CaCl2, 0.025% NaN3, 1% bovine serum albumin (BSA) and 100 pM of ligand for 30 minutes at 25° C. The reaction is stopped by filtration and washing on a Whatman GF/C filter. The nonspecific binding is measured in the presence of 10^−6M human orexin B. The IC50 values (concentration inhibiting 50% of the binding of radioiodinated orexin A to its receptors) are low, less than 300 nM, in particular less than 100 nM and more particularly less than 30 nM.

human orexin 1 receptors = molecular target: T2, human orexin 1 receptors (Homo sapiens, UniProt O43613); assay: in vitro binding test, same technique, radioiodinated orexin A, membrane preparation of CHO cells; settings: Table 2, read-out: IC50 OX 1
T2 construct: expressed in transfected cells; host or cells: CHO cells (membrane preparation)
T2 sequence (O43613 1-425): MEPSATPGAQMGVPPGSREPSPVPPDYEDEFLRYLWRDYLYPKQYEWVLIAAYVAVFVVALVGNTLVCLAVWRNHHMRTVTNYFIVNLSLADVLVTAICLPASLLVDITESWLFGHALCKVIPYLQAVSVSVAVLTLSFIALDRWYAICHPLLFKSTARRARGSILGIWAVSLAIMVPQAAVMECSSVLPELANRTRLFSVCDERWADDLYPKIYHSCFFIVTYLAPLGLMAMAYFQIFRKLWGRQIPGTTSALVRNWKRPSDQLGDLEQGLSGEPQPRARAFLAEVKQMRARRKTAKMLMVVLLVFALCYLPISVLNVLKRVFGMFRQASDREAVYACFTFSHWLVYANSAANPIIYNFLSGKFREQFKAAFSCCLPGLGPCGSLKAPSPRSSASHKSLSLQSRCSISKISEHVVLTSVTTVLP
Experimental: as §1
The affinity of the compounds according to the invention for the orexin 1 receptors was also studied in an in vitro binding test according to the same technique using radioiodinated orexin A as ligand in a membrane preparation of CHO cells expressing the human orexin 1 receptors. The compounds according to the invention have little or no affinity for the orexin 1 receptors.

[1] = Table 2, in vitro binding test, 100 pM radioiodinated orexin A, 30 minutes at 25° C.

Structure (SMILES) | IC50 (human orexin 2 receptors; Table 1, assay not given) [nM] | IC50 (human orexin 1 receptors) [nM] | IC50 (human orexin 2 receptors; [1]) [nM]
COc1ccc(S(=O)(=O)N(c2c(Cc3c(F)cccc3F)cccc2OC)[C@H]2CCNC2)cc1OC (atropisomer, axis not shown) [Compound 6, N-[2-(2,6-difluorobenzyl)-6-methoxyphenyl]-3,4-dimethoxy-N-[(3S)-pyrrolidin-3-yl]benzenesulfonamide hydrochloride] | 9.1 | – | –
COc1ccc(S(=O)(=O)N(c2c(Cc3c(F)cccc3F)cccc2OC)[C@H]2CCNC2)cc1OC (atropisomer, axis not shown) [Compound 7, N-[2-(2,6-difluorobenzyl)-6-methoxyphenyl]-3,4-dimethoxy-N-[(3S)-pyrrolidin-3-yl]benzenesulfonamide hydrochloride] | – | 103 | 9
COc1ccc(S(=O)(=O)N(c2ccc(Cl)cc2Cc2c(F)cccc2F)[C@H]2CCNC2)cc1OC [Compound 1, N-[4-chloro-2-(2,6-difluorobenzyl)phenyl]-3,4-dimethoxy-N-[(3S)-pyrrolidin-3-yl]benzenesulfonamide hydrochloride] | – | 1380 | 16.4
COc1ccc(S(=O)(=O)N(c2c(Cc3ccccc3Cl)cccc2OC)[C@H]2CCNC2)cc1OC [Compound 11, N-[2-(2-chlorobenzyl)-6-methoxyphenyl]-3,4-dimethoxy-N-[(3S)-pyrrolidin-3-yl]benzenesulfonamide hydrochloride] | 7.2 | – | –
COc1ccc(S(=O)(=O)N(c2c(Cc3c(F)cccc3F)cccc2OC)[C@H]2CCC[C@@H]2N)cc1OC [Compound 14, N-[(1S,2S)-2-aminocyclopentyl]-N-[2-(2,6-difluorobenzyl)-6-methoxyphenyl]-3,4-dimethoxy-benzenesulfonamide hydrochloride] | 10 | – | –
COc1ccc(S(=O)(=O)N(c2c(Cc3c(F)cccc3F)cc(Cl)cc2OC)[C@H]2CCNC2)cc1OC [Compound 18, N-[2-(2,6-difluorobenzyl)-4-chloro-6-methoxyphenyl]-3,4-dimethoxy-N-[(3S)-pyrrolidin-3-yl]benzenesulfonamide hydrochloride] | 12 | – | –
